Assay results as given in BindingDB's records for patent US12209085 (Sunshine Lake Pharma Co., 2025).

Experiments:
Experiment in all cases: Inhibitory Activity Assay
[1] = target: Proto-oncogene tyrosine-protein kinase receptor Ret [V804M] (Human, UniProt P07949, V804M)
[2] = target: Proto-oncogene tyrosine-protein kinase receptor Ret (Homo sapiens, UniProt P07949)
[3] = target: Proto-oncogene tyrosine-protein kinase receptor Ret [M918T] (Homo sapiens, UniProt P07949, M918T)
[4] = target: Coiled-coil domain-containing protein 6/Proto-oncogene tyrosine-protein kinase receptor Ret (Homo sapiens, UniProt P07949)
[5] = target: Proto-oncogene tyrosine-protein kinase receptor Ret [V804L] (Homo sapiens, UniProt P07949, V804L)
Sequence of Proto-oncogene tyrosine-protein kinase receptor Ret [V804L] (P07949 29-1114 V804L limits assumed): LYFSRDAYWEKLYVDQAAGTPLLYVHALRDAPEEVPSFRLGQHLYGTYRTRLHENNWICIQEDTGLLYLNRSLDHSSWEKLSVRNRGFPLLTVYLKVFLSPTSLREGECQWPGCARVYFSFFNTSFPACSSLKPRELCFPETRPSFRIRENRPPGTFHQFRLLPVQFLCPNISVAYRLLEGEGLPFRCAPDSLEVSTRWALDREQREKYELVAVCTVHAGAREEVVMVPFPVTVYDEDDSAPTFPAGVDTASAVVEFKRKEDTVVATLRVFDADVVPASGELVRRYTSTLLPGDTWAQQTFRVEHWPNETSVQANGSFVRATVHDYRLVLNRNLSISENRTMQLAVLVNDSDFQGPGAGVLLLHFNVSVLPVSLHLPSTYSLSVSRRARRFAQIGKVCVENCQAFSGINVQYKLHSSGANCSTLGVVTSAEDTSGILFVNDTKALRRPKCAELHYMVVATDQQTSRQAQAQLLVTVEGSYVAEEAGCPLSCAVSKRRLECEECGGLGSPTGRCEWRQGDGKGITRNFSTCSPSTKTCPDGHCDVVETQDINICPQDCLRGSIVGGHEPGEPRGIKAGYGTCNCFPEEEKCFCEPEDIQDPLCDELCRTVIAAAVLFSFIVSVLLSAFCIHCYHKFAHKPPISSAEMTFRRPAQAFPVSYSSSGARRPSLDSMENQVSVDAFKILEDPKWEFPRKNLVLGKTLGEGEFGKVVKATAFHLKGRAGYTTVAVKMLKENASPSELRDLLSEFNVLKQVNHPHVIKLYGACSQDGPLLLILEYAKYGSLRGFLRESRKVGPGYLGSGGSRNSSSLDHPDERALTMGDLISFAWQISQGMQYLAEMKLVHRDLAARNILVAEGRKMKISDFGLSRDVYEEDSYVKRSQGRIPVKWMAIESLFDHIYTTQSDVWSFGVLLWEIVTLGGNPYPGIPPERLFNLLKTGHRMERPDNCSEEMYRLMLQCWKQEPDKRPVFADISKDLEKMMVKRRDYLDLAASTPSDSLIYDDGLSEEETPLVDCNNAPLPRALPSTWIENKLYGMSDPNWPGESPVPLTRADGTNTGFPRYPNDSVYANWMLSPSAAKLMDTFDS

Sequence of Proto-oncogene tyrosine-protein kinase receptor Ret (P07949 whole entry): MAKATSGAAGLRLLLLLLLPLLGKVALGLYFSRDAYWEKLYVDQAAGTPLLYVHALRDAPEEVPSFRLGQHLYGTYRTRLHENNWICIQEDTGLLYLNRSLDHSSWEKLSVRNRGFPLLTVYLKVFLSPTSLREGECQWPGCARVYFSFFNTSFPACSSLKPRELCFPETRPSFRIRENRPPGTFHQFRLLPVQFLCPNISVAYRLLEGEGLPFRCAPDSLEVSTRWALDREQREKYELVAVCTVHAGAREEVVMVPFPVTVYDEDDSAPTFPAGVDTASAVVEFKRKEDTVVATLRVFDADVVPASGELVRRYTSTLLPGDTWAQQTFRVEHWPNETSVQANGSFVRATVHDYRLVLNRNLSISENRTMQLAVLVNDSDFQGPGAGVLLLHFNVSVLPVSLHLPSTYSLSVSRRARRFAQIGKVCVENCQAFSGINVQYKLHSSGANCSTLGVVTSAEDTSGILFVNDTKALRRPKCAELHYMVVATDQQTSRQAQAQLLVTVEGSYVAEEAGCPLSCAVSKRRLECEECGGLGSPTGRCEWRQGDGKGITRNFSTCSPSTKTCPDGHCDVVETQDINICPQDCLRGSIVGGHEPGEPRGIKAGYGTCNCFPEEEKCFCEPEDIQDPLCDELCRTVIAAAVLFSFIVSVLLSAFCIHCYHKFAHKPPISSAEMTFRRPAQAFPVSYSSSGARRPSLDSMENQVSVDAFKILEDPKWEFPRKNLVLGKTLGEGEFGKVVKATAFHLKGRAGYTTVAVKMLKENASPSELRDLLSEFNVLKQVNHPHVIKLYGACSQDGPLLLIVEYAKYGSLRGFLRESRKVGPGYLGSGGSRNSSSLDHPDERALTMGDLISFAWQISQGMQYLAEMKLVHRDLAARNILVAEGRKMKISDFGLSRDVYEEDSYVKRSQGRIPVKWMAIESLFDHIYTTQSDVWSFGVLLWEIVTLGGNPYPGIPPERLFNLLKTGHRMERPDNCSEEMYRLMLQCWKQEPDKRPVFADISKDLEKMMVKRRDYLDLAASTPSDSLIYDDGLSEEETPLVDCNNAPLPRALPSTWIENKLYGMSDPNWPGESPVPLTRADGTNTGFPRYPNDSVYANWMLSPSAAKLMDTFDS
Sequence of Proto-oncogene tyrosine-protein kinase receptor Ret [V804M] (P07949 29-1114 V804M limits assumed): as the sequence (P07949 29-1114 V804L limits assumed) above, with L776M counted along it
Sequence of Coiled-coil domain-containing protein 6/Proto-oncogene tyrosine-protein kinase receptor Ret (P07949 whole entry, the tested form may be a part): as the sequence (P07949 whole entry) above
Sequence of Coiled-coil domain-containing protein 6/Proto-oncogene tyrosine-protein kinase receptor Ret (Q16204 whole entry, further chain, the tested form may be a part): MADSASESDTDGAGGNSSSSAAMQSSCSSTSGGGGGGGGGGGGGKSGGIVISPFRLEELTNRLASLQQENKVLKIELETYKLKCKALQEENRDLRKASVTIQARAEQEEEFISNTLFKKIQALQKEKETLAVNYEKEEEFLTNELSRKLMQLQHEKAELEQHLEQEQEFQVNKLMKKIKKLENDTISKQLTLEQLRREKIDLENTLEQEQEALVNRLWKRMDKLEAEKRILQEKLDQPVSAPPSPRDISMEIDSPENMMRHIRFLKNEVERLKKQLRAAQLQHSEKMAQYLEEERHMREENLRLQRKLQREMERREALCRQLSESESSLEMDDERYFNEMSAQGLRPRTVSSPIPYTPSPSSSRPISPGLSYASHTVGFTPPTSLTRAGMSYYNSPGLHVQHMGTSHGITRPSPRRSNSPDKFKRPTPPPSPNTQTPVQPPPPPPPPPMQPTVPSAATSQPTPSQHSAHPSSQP
Sequence of Proto-oncogene tyrosine-protein kinase receptor Ret [M918T] (P07949 29-1114 M918T limits assumed): as the sequence (P07949 29-1114 V804L limits assumed) above, with L776V, M890T counted along it

| IC50 [3] [nM] | IC50 [4] [nM] | IC50 [5] [nM] | SMILES | IC50 [1] [nM] | IC50 [2] [nM] |
| --- | --- | --- | --- | --- | --- |
| – | – | – | C#Cc1ccc(CN2C3CC2CN(c2ccc(-c4cc(-c5cnn(C)c5)cn5ncc(C#N)c45)cn2)C3)cn1 [US12209085, Example 186] | 0.76 | 0.17 |
| – | – | – | C#Cc1ncc(CN2C3CC2CN(c2ccc(-c4cc(-c5cnn(C)c5)cn5ncc(C#N)c45)cn2)C3)cc1F [US12209085, Example 227] | 0.3 | 0.13 |
| 1.92 | 3.16 | 2.35 | C#Cc1cccc(C(=O)NC2CCN(c3ccc(-c4cc(-c5cnn(C)c5)cn5ncc(C#N)c45)cn3)CC2)c1 [US12209085, Example 268] | 30.8 | 2.69 |
| – | – | – | C#CC#CCN1C2CC1CN(c1ccc(-c3cc(-c4cnn(C)c4)cn4ncc(C#N)c34)cn1)C2 [US12209085, Example 276] | 1.08 | 0.39 |
